Experimental data as given in patent publication US4568690A, “1-Methyl-5-p-methylbenzoylpyrrole-2-acetamidoacetanilides with antiinflammatory, analgesic, antipyretic and anti-platelet aggregant activity” (priority 1983, dated 1986).
Like-named read-outs stand apart in the source and are kept apart here.

Columns and labels:
gastric mucosa = assay: gastric tolerance (ulcerogenic activity); settings: orally, four consecutive days; for Incidence % / 10: groups of 10 animals; for Mean number severity: severity scale 0-5
Description: This was studied by testing ulcerogenic activity in male Wistar rats weighing an average of 180 g, using groups of 10 animals each. Three doses of each substance were used, and one group of animals was treated with vehicle only, in a volume of 10 ml/g body weight. Each dose was administered orally for four consecutive days, and the rats were killed on the fifth day and autopsied. The ulcerogenic effect was evaluated on the following scale:
(1) each hemorrhage point >1 mm was evaluated as 1 lesion
(2) the hemorrhage points <1 were counted as follows:
(b) from 1 to 19 2 lesions
(c) from 1 to 29 3 lesions
(2) gastric mucosa irritation
(3) hemorrhage points <1 mm
(4) hemorrhage points from 1 to 3 mm
(5) hemorrhage points >3 mm
This scale was used to calculate the following index of gastric damage: [formula]

in vivo [1] = settings: mouse
carragenin-induced edema = carragenin-induced edema test (antinflammatory activity); type: in vivo, rats
Description: (§1) Preparations of the compound were administered orally and/or parenterally in a suspension in 0.59% carboxymethylcellulose in pH neutral physiological saline.
This effect was evaluated with an experimental model reproducing actue inflammation in rats: the carragenin-induced edema test was used, according to the method of C. A. Winter (G. Pharmac. Exp. Ther., 141, 369 (1963)). Table III reports the compounds tested, their concentrations, administration routes and relative percent edema inhibition.

[2] = test system: p-phenylquinone-induced writhing; assay: p-phenylquinone-induced writhing test (analgesic activity); type: in vivo; settings: an hour after administration
Description: as §1
The determination was made an hour after administration of the product. The inhibitory effect on abdominal contractions induced by phenyl-p-quinone was calculated as follows: [formula]
Table IV reports the doses, the administration routes and their effectiveness expressed as % protection.

in vivo [3] = settings: rat
[4] = test system: hyperthermia induced by dry purified beer yeast; assay: antipyretic activity, beer yeast-induced hyperthermia; type: in vivo, Wistar strain male albino rats
Description: as §1
This effect was evaluated by inducing hyperthermia in Wistar strain male albino rats with an average weight of 250±10 g, injecting them intraperitoneally with a 10% suspension of dry purified beer yeast (Carlo Erba) in a volume of 10 ml/Kg of body weight, according to the method of S. Wong et al. (J. Pharmac. Exp. Ther., 185 (1), 127 (1973)).

[5] = test system: platelet aggregation (ADP-induced); assay: in vitro anti-platelet aggregant activity (Born's method, ADP); type: cell-based, rat; settings: Rattus norvegicus, Platelet, ADP 7.08 μmol/l, read-out: Inhibition % (platelet aggregation)
Description: This activity was studied in vitro following Born's method (G. W. R. Born, Nature, 194, 937 (1962)) and inducing platelet aggregation with ADP. […] For the aggregation test, 0.2 ml of platelet rich plasma was mixed with a NaCl solution (0.9%) to which the test substance was added up to a final volume of 0.6 ml. Incubation was fixed at 3 minutes at 27° C. After aggregation was induced with ADP, the course of the aggregation was monitored continuously with an Elvi 840 Aggregometer (Elvi Logos--Milan). The antiaggregant effects were determined by the difference in the light transmission of the sample with respect to that of the ADP control. The test compound was compared with aspirin, which has known antiplatelet aggregant activity (H. J. Weiss et al., J. Clin. Inv., 47, 2169 (1968); Platelet Aggregation and Drugs, edited by L. Caprino and E. C. Rossi, page 235, Academic Press (London), 1974).
Table VI reports the inhibition of platelet aggregation with various doses of the compounds tested at a constant ADP concentration.

mouse = settings: in vivo

SMILES: Cc1ccc(C(=O)c2ccc(CC(=O)NCC(=O)Nc3cccc(Cl)c3)n2C)cc1 [Compound 1b]
- Index gastric damage (gastric mucosa; 50 mg/kg): 8
- Index gastric damage, signed figure (untitled; difference from Carrier index 8) (gastric mucosa; 50 mg/kg): +0
- Mean number lesions (gastric mucosa; 50 mg/kg): 1
- Incidence % / 10 (gastric mucosa; 50 mg/kg): 5 %/10
- Mean number severity (gastric mucosa; 50 mg/kg): 2
- Index gastric damage (gastric mucosa; 100 mg/kg): 11
- Index gastric damage, signed figure (untitled; difference from Carrier index 8) (gastric mucosa; 100 mg/kg): +3
- Mean number lesions (gastric mucosa; 100 mg/kg): 2
- Incidence % / 10 (gastric mucosa; 100 mg/kg): 7 %/10
- Mean number severity (gastric mucosa; 100 mg/kg): 2
- Index gastric damage (gastric mucosa; 200 mg/kg): 14
- Index gastric damage, signed figure (untitled; difference from Carrier index 8) (gastric mucosa; 200 mg/kg): +6
- Mean number lesions (gastric mucosa; 200 mg/kg): 3
- Incidence % / 10 (gastric mucosa; 200 mg/kg): 8 %/10
- Mean number severity (gastric mucosa; 200 mg/kg): 3
- LD50 (in vivo [1]; ip): 1370 mg/kg
- LD50 (in vivo [1]; po): > 1500 mg/kg
- Oedema inhibition % (carragenin-induced edema; i.p., 10 mg/kg, 3 h): 30.1%
- Oedema inhibition % (carragenin-induced edema; i.p., 10 mg/kg, 6 h): 29.0%
- Oedema inhibition % (carragenin-induced edema; i.p., 10 mg/kg, 24 h): 0.0%
- Oedema inhibition % (carragenin-induced edema; i.p., 50 mg/kg, 3 h): 49.2%
- Oedema inhibition % (carragenin-induced edema; i.p., 50 mg/kg, 6 h): 43.5%
- Oedema inhibition % (carragenin-induced edema; i.p., 50 mg/kg, 24 h): 2.3%
- Oedema inhibition % (carragenin-induced edema; i.p., 100 mg/kg, 3 h): 65.4%
- Oedema inhibition % (carragenin-induced edema; i.p., 100 mg/kg, 6 h): 62.0%
- Oedema inhibition % (carragenin-induced edema; i.p., 100 mg/kg, 24 h): 16.4%
- Oedema inhibition % (carragenin-induced edema; os, 10 mg/kg, 3 h): 29.8%
- Oedema inhibition % (carragenin-induced edema; os, 10 mg/kg, 6 h): 22.3%
- Oedema inhibition % (carragenin-induced edema; os, 10 mg/kg, 24 h): 0.0%
- Oedema inhibition % (carragenin-induced edema; os, 50 mg/kg, 3 h): 47.3%
- Oedema inhibition % (carragenin-induced edema; os, 50 mg/kg, 6 h): 44.1%
- Oedema inhibition % (carragenin-induced edema; os, 50 mg/kg, 24 h): 0.0%
- Oedema inhibition % (carragenin-induced edema; os, 100 mg/kg, 3 h): 61.9%
- Oedema inhibition % (carragenin-induced edema; os, 100 mg/kg, 6 h): 59.8%
- Oedema inhibition % (carragenin-induced edema; os, 100 mg/kg, 24 h): 15.3%
- Protection % ([2]; i.p., 5 mg/kg): 18.7%
- Protection % ([2]; i.p., 10 mg/kg): 42.3%
- Protection % ([2]; i.p., 20 mg/kg): 69.5%
- Protection % ([2]; os, 5 mg/kg): 16.1%
- Protection % ([2]; os, 10 mg/kg): 36.2%
- Protection % ([2]; os, 20 mg/kg): 69.1%
- LD50 (in vivo [3]; ip): 1200 mg/kg
- LD50 (in vivo [3]; po): > 1420 mg/kg
- Temperature decrease % ([4]; i.p., 50 mg/kg, 1 h): 16.0%
- Temperature decrease % ([4]; i.p., 50 mg/kg, 2 h): 19.3%
- Temperature decrease % ([4]; i.p., 50 mg/kg, 3 h): 33.0%
- Temperature decrease % ([4]; i.p., 75 mg/kg, 1 h): 26.0%
- Temperature decrease % ([4]; i.p., 75 mg/kg, 2 h): 36.1%
- Temperature decrease % ([4]; i.p., 75 mg/kg, 3 h): 40.0%
- Temperature decrease % ([4]; i.p., 100 mg/kg, 1 h): 39.1%
- Temperature decrease % ([4]; i.p., 100 mg/kg, 2 h): 40.0%
- Temperature decrease % ([4]; i.p., 100 mg/kg, 3 h): 30.5%
- Temperature decrease % ([4]; os, 50 mg/kg, 1 h): 19.0%
- Temperature decrease % ([4]; os, 50 mg/kg, 6 h): 19.5%
- Temperature decrease % ([4]; os, 50 mg/kg, 24 h): 29.8%
- Temperature decrease % ([4]; os, 75 mg/kg, 1 h): 20.0%
- Temperature decrease % ([4]; os, 75 mg/kg, 6 h): 30.0%
- Temperature decrease % ([4]; os, 75 mg/kg, 24 h): 40.1%
- Temperature decrease % ([4]; os, 100 mg/kg, 1 h): 30.0%
- Temperature decrease % ([4]; os, 100 mg/kg, 6 h): 33.1%
- Temperature decrease % ([4]; os, 100 mg/kg, 24 h): 31.2%
- inhibition at 1 µg/mL ([5]; 1 γ/ml): 25%
- inhibition at 5 µg/mL ([5]; 5 γ/ml): 100%
- inhibition at 10 µg/mL ([5]; 10 γ/ml): 100%

SMILES: COc1ccc(OC)c(NC(=O)CNC(=O)Cc2ccc(C(=O)c3ccc(C)cc3)n2C)c1 [Compound 1g]
- Index gastric damage (gastric mucosa; 50 mg/kg): 8
- Index gastric damage, signed figure (untitled; difference from Carrier index 8) (gastric mucosa; 50 mg/kg): +0
- Mean number lesions (gastric mucosa; 50 mg/kg): 1
- Incidence % / 10 (gastric mucosa; 50 mg/kg): 6 %/10
- Mean number severity (gastric mucosa; 50 mg/kg): 1
- Index gastric damage (gastric mucosa; 100 mg/kg): 11
- Index gastric damage, signed figure (untitled; difference from Carrier index 8) (gastric mucosa; 100 mg/kg): +3
- Mean number lesions (gastric mucosa; 100 mg/kg): 2
- Incidence % / 10 (gastric mucosa; 100 mg/kg): 7 %/10
- Mean number severity (gastric mucosa; 100 mg/kg): 2
- Index gastric damage (gastric mucosa; 200 mg/kg): 14
- Index gastric damage, signed figure (untitled; difference from Carrier index 8) (gastric mucosa; 200 mg/kg): +6
- Mean number lesions (gastric mucosa; 200 mg/kg): 3
- Incidence % / 10 (gastric mucosa; 200 mg/kg): 9 %/10
- Mean number severity (gastric mucosa; 200 mg/kg): 2
- LD50 (in vivo [1]; ip): 1430 mg/kg
- LD50 (in vivo [1]; po): > 1500 mg/kg
- Oedema inhibition % (carragenin-induced edema; i.p., 10 mg/kg, 3 h): 35.6%
- Oedema inhibition % (carragenin-induced edema; i.p., 10 mg/kg, 6 h): 37.0%
- Oedema inhibition % (carragenin-induced edema; i.p., 10 mg/kg, 24 h): 0.0%
- Oedema inhibition % (carragenin-induced edema; i.p., 50 mg/kg, 3 h): 50.1%
- Oedema inhibition % (carragenin-induced edema; i.p., 50 mg/kg, 6 h): 50.0%
- Oedema inhibition % (carragenin-induced edema; i.p., 50 mg/kg, 24 h): 6.1%
- Oedema inhibition % (carragenin-induced edema; i.p., 100 mg/kg, 3 h): 71.0%
- Oedema inhibition % (carragenin-induced edema; i.p., 100 mg/kg, 6 h): 71.5%
- Oedema inhibition % (carragenin-induced edema; i.p., 100 mg/kg, 24 h): 22.9%
- Oedema inhibition % (carragenin-induced edema; os, 10 mg/kg, 3 h): 30.4%
- Oedema inhibition % (carragenin-induced edema; os, 10 mg/kg, 6 h): 37.9%
- Oedema inhibition % (carragenin-induced edema; os, 10 mg/kg, 24 h): 1.2%
- Oedema inhibition % (carragenin-induced edema; os, 50 mg/kg, 3 h): 51.4%
- Oedema inhibition % (carragenin-induced edema; os, 50 mg/kg, 6 h): 49.0%
- Oedema inhibition % (carragenin-induced edema; os, 50 mg/kg, 24 h): 7.9%
- Oedema inhibition % (carragenin-induced edema; os, 100 mg/kg, 3 h): 72.3%
- Oedema inhibition % (carragenin-induced edema; os, 100 mg/kg, 6 h): 70.0%
- Oedema inhibition % (carragenin-induced edema; os, 100 mg/kg, 24 h): 25.1%
- DL50 (LD50) (mouse; ip): 1200 mg/kg
- DL50 (LD50) (mouse; po): 1470 mg/kg
- Protection % ([2]; i.p., 5 mg/kg): 23.0%
- Protection % ([2]; i.p., 10 mg/kg): 56.9%
- Protection % ([2]; i.p., 20 mg/kg): 74.2%
- Protection % ([2]; os, 5 mg/kg): 20.1%
- Protection % ([2]; os, 10 mg/kg): 50.3%
- Protection % ([2]; os, 20 mg/kg): 76.0%
- Temperature decrease % ([4]; i.p., 50 mg/kg, 1 h): 26.0%
- Temperature decrease % ([4]; i.p., 50 mg/kg, 2 h): 27.0%
- Temperature decrease % ([4]; i.p., 50 mg/kg, 3 h): 26.0%
- Temperature decrease % ([4]; i.p., 75 mg/kg, 1 h): 32.1%
- Temperature decrease % ([4]; i.p., 75 mg/kg, 2 h): 34.5%
- Temperature decrease % ([4]; i.p., 75 mg/kg, 3 h): 40.0%
- Temperature decrease % ([4]; i.p., 100 mg/kg, 1 h): 39.1%
- Temperature decrease % ([4]; i.p., 100 mg/kg, 2 h): 46.0%
- Temperature decrease % ([4]; i.p., 100 mg/kg, 3 h): 41.0%
- Temperature decrease % ([4]; os, 50 mg/kg, 1 h): 17.1%
- Temperature decrease % ([4]; os, 50 mg/kg, 6 h): 27.1%
- Temperature decrease % ([4]; os, 50 mg/kg, 24 h): 29.1%
- Temperature decrease % ([4]; os, 75 mg/kg, 1 h): 19.6%
- Temperature decrease % ([4]; os, 75 mg/kg, 6 h): 30.1%
- Temperature decrease % ([4]; os, 75 mg/kg, 24 h): 43.1%
- Temperature decrease % ([4]; os, 100 mg/kg, 1 h): 23.1%
- Temperature decrease % ([4]; os, 100 mg/kg, 6 h): 33.0%
- Temperature decrease % ([4]; os, 100 mg/kg, 24 h): 42.1%
